Source: PMC10044725, “Antioxidant, Anti-Inflammatory and Anti-Diabetic Activities of Tectona grandis Methanolic Extracts, Fractions, and Isolated Compounds” (Antioxidants, 2023)
Marks after values point to notes of the source that are not given here.

Columns and labels:
TNF-α = TNF-α secretion in LPS-stimulated RAW 264.7 macrophages (ELISA); assay type: cell-based, mouse; settings: 40 µM, LPS 1 µg/mL, 48 h, vs model control (p < 0.01)
Description: (§1) In order to increase cytokine production, macrophages were treated with LPS at a final concentration of 1 µg/mL, and then with T. grandis compounds at 40 µM. The compounds were solubilized in DMEM medium containing 0.1% DMSO. Dexamethasone was employed as a positive control (5 µg/mL). A centrifuge was used to separate the supernatant from the cells after 48 h of incubation, with three replicates per group. Quantification of TNF-α, IL-1β and IL-6 secretion was achieved by following the ELISA manufacturer's instructions. Then, absorbance was measured at 450 nm. Relative TNF-α, IL-1β and IL-6 expression was calculated according to Equation (4). Following the inflammatory factor test, cell viability was detected by CellTiter96® Aqueous One Solution Cell Proliferation Assay. Then, 20 μL/well CellTiter96® Aqueous One Solution Cell Growth Assay reagent was added to the plate and incubated at 37 °C for 8 h, absorbance was measured at […] and relative cell viability was calculated according to Equation (5). Relative content of inflammatory cytokines (%) = (A1/A2)/A3 × 100%(4) where A1 is the concentrations value of inflammatory cytokines of each group, A2 is the relative cell viability of each group (model group is 100) and A3 is the concentration of inflammatory cytokines of model group. Cell viability rate (%) = B1/B2 × 100%(5) where B1 is the OD value of each fraction group or positive control group and B2 is the OD value of the model control.

IL-1β = IL-1β secretion in LPS-stimulated RAW 264.7 macrophages (ELISA); assay type: cell-based, mouse; settings: 40 µM, LPS 1 µg/mL, 48 h, vs model control (p < 0.0001)
Description: as §1

[1] = DPPH free radical scavenging assay; settings: isolated compounds; half scavenging concentration; read-out: DPPH Assay SC50
Description: The DPPH free radical scavenging activities of T. grandis methanolic extract, different fractions and its compounds were conducted according to Dr. Yang et al.. […] The absorbance was measured using a microplate reader at 517 nm, and ascorbic acid was used as a positive control. The DPPH scavenging activity was calculated according to the following formula: Scavenging activity (%) = [1 − (A1 − A2)/(A3 − A4)] × 100% (1) where A1 is the OD value of the tested samples, A2 is the OD value of the sample control, A3 is the OD value of the negative control and A4 is the OD value of the blank control. The analysis was performed in triplicates and the results were described as SC50 values.

IL-6 = IL-6 secretion in LPS-stimulated RAW 264.7 macrophages (ELISA); assay type: cell-based, mouse; settings: 40 µM, LPS 1 µg/mL, 48 h, vs model control (p < 0.05)
Description: as §1

[2] = ABTS radical cation scavenging assay (Trolox equivalent); settings: compounds at 50 μM
Description: The ABTS radical cation (ABTS•+) scavenging activities were conducted in accordance with the instructions for the ABTS kit. The total antioxidant activity values were estimated using the Trolox equivalent antioxidant capacity test. The detection concentration of methanolic extract and different fractions was 80 μg/mL, and the detection concentration of compounds (1–23) was 50 μM. […] Then, 190 μL of ABTS working reagent was mixed with 10 μL sample and incubated at room temperature for 5 min. The absorbance was then measured using a microplate reader at 734 nm, and the scavenging activity was calculated according to Equation (2). The blank control group used DMSO to replace the sample. […] The analysis was performed in triplicates, 1.424, 0.0012 was a constant.

α-glucosidase = assay: α-Glucosidase inhibition assay (pNPG); assay type: biochemical; settings: for Inhibitory Rate (%): at a concentration of 50 µM; for IC50: compounds
Description: The inhibitory effect on α-glucosidase was measured according to the previous report method with slight modifications. The 20 mM sample dissolved in DMSO was diluted to 50 μM in PBS, 10 μL sample was mixed with 50 μL of 0.1 μ/mL α-glucosidase solution in 0.1 M phosphate buffer (pH 6.5) in a 96-well microplate and 10 μL PBS was used as a blank control. The mixture was incubated at 37 °C for 10 min before adding 40 µL of 5 mM 4-nitrophenyl-α-D-glucopyranoside to each well. After 30 min of incubation at 37 °C, the reaction was terminated by adding 50 μL of 0.1 M Na2CO3 to this mixture. The released 4-nitrophenol absorbance measurements were carried out using a microplate reader (SpectraMax190, USA) at 405 nm.

[3] = Ferric reducing antioxidant power (FRAP) assay; settings: compounds at 50 μM; Trolox equivalent
Description: The FRAP assay was determined in accordance with the instructions for the FRAP kit. The total antioxidant activity values were estimated using the Trolox equivalent antioxidant capacity test. Initially, the detection concentration of methanolic extract and different fractions was 80 μg/mL, and the detection concentration of compounds (1–23) was 50 μM. Then, 190 μL of FRAP working reagent was mixed with 10 μL sample and incubated at room temperature for 20 min. The absorbance was then measured using a microplate reader at 593 nm, and the scavenging activity was calculated according to Equation (3). The blank control group used DMSO to replace the sample. […] The analysis was performed in triplicates, 0.8054, 0.0134 was a constant.

pBR322 DNA = assay: Prevention of AAPH-induced DNA oxidative damage; settings: AAPH 20 mM; p < 0.0001 vs model
Description: The effects of T. grandis methanolic extract, different fractions and its compounds 15, 19 and 23 on the prevention of DNA oxidative damage were carried out using the method of Han et al.. Initially, 8 μL pBR322 DNA (50 μg/mL) in PBS (0.1 M, pH 6.8) was mixed with different concentrations of T. grandis fractions and its compounds (12 μL) and incubated in water at 37 °C for 30 min. Then, 5 μL AAPH (20 mM) was added to the mixture and the reaction continued for 60 min. The control group used the same volume of PBS (0.1 M, pH 6.8) to replace AAPH. The pre-treated samples were mixed with 5 × DNA loading buffer, and the mixture (8 μL) was taken for 1.0% agarose gel electrophoresis for 25 min. After electrophoresis, the gels were stained with ethidium bromide for 20 min. Finally, images were taken using a DNA gel imaging system (ChampChemi 610, Beijing sage creation Co., Ltd. Beijing, China).

BSA = assay: Prevention of AAPH-induced protein oxidative damage; set-up: species or system Bovine; settings: AAPH 160 mM; residual BSA
Description: The protective activities of T. grandis methanolic extract, different fractions and its compounds 15 and 23 on protein oxidative damage were carried out using the method of Yang et al.. Initially, 20 μL BSA solutions (1 mg/mL) in PBS (0.1 M, pH 6.8) were mixed with different concentrations of fractions (40 μL) and compounds (40 μL) and incubated in water at 37 °C for 30 min. Then, 40 μL AAPH (160 mM) was added to the mixture and the reaction continued for 4 h. The control group used the same volume of PBS (0.1 M, pH 6.8) to replace AAPH. The pre-treated samples were added to 5 × SDS loading buffer and treated in water at 95 °C for 15 min. […] After electrophoresis, the gels were stained with Coomassie brilliant blue R-250 dye (0.25%, w/v), and then the gels were decolorized with the decolorizing solution. Finally, images were taken using the SDS-PAGE gel imaging system (ChampChemi 610, China) and the grayscale of Western blot was analyzed using Image J software.

EC50 [1] | Inhibitory Rate (%) (α-glucosidase) | IC50 (α-glucosidase) | SMILES | effect on TNF-α inflammatory factor level (TNF-α) | effect on IL-1β inflammatory factor level (IL-1β) | effect on IL-6 inflammatory factor expression (IL-6) | ABTS Assay [2] | FRAP Assay [3] | concentration at which a protective effect against DNA oxidative damage begins (pBR322 DNA) | concentration at which a protective effect against protein oxidative damage begins (BSA)
8.09 ± 1.05 µM | 10.62 ± 1.39 ^d % | > 50 µM | O=c1cc(-c2ccc(O)c(O)c2)oc2cc(O[C@@H]3O[C@H](CO)[C@@H](O)[C@H](O)[C@H]3O)cc(O)c12 [Compound 1, luteolin-7-O-β-D-glucoside] | could decrease | significant decrease | significant activities in reducing the expression | 0.08 ± 0.01 ^d mmol Trolox/L |  |  | 
3.56 ± 0.53 µM | 13.84 ± 0.93 ^d % | > 50 µM | COC(=O)c1cc(O)c2c(c1)C(=O)c1ccccc1C2=O [Compound 13, 3-carbomethoxy-1-hydroxy-9,10-anthraquinone] |  | significant decrease | significant activities in reducing the expression | 0.04 ± 0.00 ^d mmol Trolox/L | 0.01± 0.01 ^c mmol Trolox/L |  | 
1.99 ± 0.34 µM | 18.30 ± 2.22 ^cd % | > 50 µM | C[C@@H]1O[C@@H](O[C@@H]2[C@@H](O)[C@H](OCCc3ccc(O)c(O)c3)O[C@H](CO)[C@H]2OC(=O)/C=C/c2ccc(O)c(O)c2)[C@H](O)[C@H](O)[C@H]1O [Compound 15, verbascoside] |  |  |  | 1.10 ± 0.77 ^a mmol Trolox/L | 1.22 ± 0.11 ^a mmol Trolox/L | 0.6 mM | 40 µM
8.45 ± 0.57 µM | 22.91 ± 1.10 ^c % | > 50 µM | CC1CCC2(C(=O)OC3OC(CO)C(O)C(O)C3OC3OC(CO)C(O)C(O)C3O)CCC3(C)C(=CCC4C5(C)CC(O)C(O)C(C)(CO)C5CCC43C)C2C1(C)O [Compound 18, 2β,3β,19α,23-tetrahydroxy-urs-12-en-28-O-[β-D-glucopyranosyl (1-2)-β-D-glucopyranosyl] ester] | could decrease | significant decrease | significant activities in reducing the expression |  | 0.39 ± 0.00 ^b mmol Trolox/L |  | 
